Assay results published in paper PMC11269731, “Pannexin-1 channel inhibition alleviates opioid withdrawal in rodents by modulating locus coeruleus to spinal cord circuitry” (Nature Communications, 2024).

Target: T1, Pannexin-1 (rPanx1) (Rattus norvegicus, UniProt P60570)
T1 construct: gene Panx1; Rattus norvegicus Pannexin-1 cDNA in pRK5 (pRK5-rPanx1)
Assay: whole-cell patch clamp of HEK-293T cells transfected with rat Panx1
Assay type: cell-based

T1 sequence (P60570 whole entry): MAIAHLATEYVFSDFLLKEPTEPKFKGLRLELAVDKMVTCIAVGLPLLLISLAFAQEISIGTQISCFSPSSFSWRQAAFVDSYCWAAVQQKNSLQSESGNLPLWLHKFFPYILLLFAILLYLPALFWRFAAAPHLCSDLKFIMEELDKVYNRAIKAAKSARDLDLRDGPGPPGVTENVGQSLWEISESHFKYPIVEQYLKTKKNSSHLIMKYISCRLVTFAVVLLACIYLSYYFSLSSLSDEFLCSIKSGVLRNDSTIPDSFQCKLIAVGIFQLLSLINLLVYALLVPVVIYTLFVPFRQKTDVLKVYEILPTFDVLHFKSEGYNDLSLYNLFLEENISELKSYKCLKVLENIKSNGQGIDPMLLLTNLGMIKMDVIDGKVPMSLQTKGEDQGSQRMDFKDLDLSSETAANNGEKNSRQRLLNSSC

**Q.** How did the IC50 turn out when `CCCN(CCC)S(=O)(=O)c1ccc(C(O)(C(F)(F)F)C(F)(F)F)cc1` [EG-2184, 4-(1,1,1,3,3,3-hexafluoro-2-hydroxypropan-2-yl)-N,N-dipropylbenzenesulfonamide] was run?
**A.** 0.054 µM

**Q.** How did the IC50 turn out when `CCCN(CCC)S(=O)(=O)c1ccc(C(=O)O)cc1` [probenecid] was run?
**A.** 74.6 µM
